Laboratory results taken from patent publication US10568877B2, “Preparation and anti-HSV-1 application of quinolinone derivatives” (OCEAN UNIVERSITY OF CHINA, priority 2015, dated 2020).

System: HSV-1
Test: Antiviral activity against HSV-1 by cytopathic (CPE) assay in Hep-2 cells
Assay type: cell-based, Herpes Simplex Virus 1
Conditions: for IC50: anti-HSV-1 activity, CPE assay, Hep-2 cells, neutral red OD 540 nm, Reed-Muench; for TI = TC50/IC50: TC50 = median toxic concentration for Hep-2 monolayer cells, IC50 against HSV-1
Method: The antiviral activities against HSV-1 were evaluated by cytopathic (CPE) assay. Hep-2 monolayer cells were treated with trypsin enzyme and transferred to 96-well plates. HSV-1 viruses were seeded with Hep-2 cells in 96-well plates, with 2% RPMI-1640 medium, and incubated under 37° C., 5% CO2. After more than 90% lesions, the virus-infected cells were repeatedly freezed and thawed for 3 times, centrifuged, and stored in the refrigerator at −80° C. Each tested compound was dissolved in 10 μL DMSO to make a homogeneous solution and the solution was diluted 10 times by one-to-one dilution with 2% RPMI-1640 medium. The solution gradient was added to the infected cells incubated in 96-well plates. Ribavirin was used as positive control. Normal cells alone and infected cells alone were used as control. All samples were incubated under 37° C., 5% CO2. Examine pathological changes once every hour, for 24 h. […] OD value was determined at 540 nm. IC50 values of the tested compounds were calculated by Reed-Muench methods.

## C=C(C)[C@H]1CC[C@](C)(/C=C/c2ccc3c(c2O)[C@@](O)(c2ccccc2)[C@H](OC)C(=O)N3)O1 [Compound 1]
Human alphaherpesvirus 1
  IC50: 0.05 to 2 µM

## CO[C@@H]1C(=O)Nc2ccc(/C=C/[C@]3(C)CCC(=O)[C@@H](C)C3)c(O)c2[C@@]1(O)c1ccccc1 [Compound 2a]
Human alphaherpesvirus 1
  IC50: 0.05 to 2 µM

## CO[C@@H]1C(=O)Nc2ccc(/C=C/[C@]3(C)CC[C@@H](O)[C@@H](C)C3)c(O)c2[C@@]1(O)c1ccccc1 [Compound 3]
Human alphaherpesvirus 1
  IC50: 0.05 to 2 µM

## CO[C@@H]1C(=O)Nc2ccc(/C=C/[C@@]3(C)CCC(=O)[C@@H](C)C3)c(O)c2[C@@]1(O)c1ccccc1 [Compound 4]
Human alphaherpesvirus 1
  IC50: 0.05 to 2 µM

## COc1ccc([C@@]2(O)c3c(ccc(/C=C/[C@@]4(C)OC(C)(C)[C@@H]5C[C@@H]54)c3O)NC(=O)[C@@H]2OC)cc1 [Compound 5]
Human alphaherpesvirus 1
  IC50: 2 to 25 µM

## COc1ccc([C@@]2(O)c3c(ccc(/C=C/[C@@]4(C)OC(C)(C)[C@H]5C[C@H]54)c3O)NC(=O)[C@@H]2OC)cc1 [Compound 6]
Human alphaherpesvirus 1
  IC50: 2 to 25 µM

## COc1ccc([C@@]2(O)c3c(ccc(/C=C/[C@]4(C)CC[C@@H](O)C(C)(C)O4)c3O)NC(=O)[C@@H]2OC)cc1 [Compound 7]
Human alphaherpesvirus 1
  IC50: 2 to 25 µM

## COc1ccc([C@@]2(O)c3c(ccc(/C=C/C4(C)CCC(C)(C)C(O)O4)c3O)NC(=O)[C@@H]2OC)cc1 (some centres unmarked) [Compound 10]
Human alphaherpesvirus 1
  IC50: 0.05 to 2 µM

## COc1ccc([C@@]2(O)c3c(ccc(/C=C/[C@@]4(C)CCC(C)(C)CO4)c3O)NC(=O)[C@@H]2OC)cc1 [Compound 11]
Human alphaherpesvirus 1
  IC50: 2 to 25 µM

## COc1ccc([C@@]2(O)c3c(ccc(/C=C/[C@]4(C)CCC(C)(C)CO4)c3O)NC(=O)[C@@H]2OC)cc1 [Compound 12]
  TI = TC50/IC50: ++ (“++” means TI was between 20 and 100)
  IC50: 2 to 25 µM

## COc1ccc([C@]2(O)c3c(O)cccc3NC(=O)[C@H]2O)cc1 [Compound 15]
Human alphaherpesvirus 1
  IC50: 50 to 100 µM

## COc1ccc([C@]2(O)c3ccccc3NC(=O)[C@H]2O)cc1 [Compound 16]
Human alphaherpesvirus 1
  IC50: 50 to 100 µM

## COc1ccc([C@@]2(O)c3c(ccc(CC=C(C)C)c3O)NC(=O)[C@@H]2OC)cc1 [Compound 17]
Human alphaherpesvirus 1
  IC50: 25 to 50 µM

## COc1ccc([C@@]2(O)c3c(ccc(/C=C/C(C)=O)c3O)NC(=O)[C@@H]2OC)cc1 [Compound 18]
Human alphaherpesvirus 1
  IC50: 25 to 50 µM

## C=C(C)/C=C/c1ccc2c(c1O)[C@](O)(c1ccc(OC)cc1)[C@@H](OC)C(=O)N2 [Compound 19]
Human alphaherpesvirus 1
  IC50: 25 to 50 µM

## COc1ccc(-c2c(O)c(=O)[nH]c3ccccc23)cc1 [Compound 29]
Human alphaherpesvirus 1
  IC50: 25 to 50 µM

## O=c1[nH]c2ccccc2c(-c2ccccc2)c1O [Compound 30]
Human alphaherpesvirus 1
  IC50: 25 to 50 µM

## NC(=O)c1ncn([C@@H]2O[C@H](CO)[C@@H](O)[C@H]2O)n1 [Ribavirin, reference compound]
Human alphaherpesvirus 1
  IC50: 50 to 100 µM
  TI = TC50/IC50: ++++ (“++++” means TI > 500)
